Assay results published in ChEMBL document CHEMBL1811764, “Structure-activity studies of RNA-binding oxazolidinone derivatives” (Bioorg Med Chem Lett, 2011).

What follows are compounds tested on Nucleic Acid (assay: Binding affinity to Bacillus subtilis AM1A C11U antiterminator model RNA variant assessed as increase in fluorescence by FRET assay relative to control).
Type: nucleic-acid assay
Set-up: concentration or dose not given beside the values

Row | SMILES | Activity
1 | O=C(Cc1ccc(-c2ccccc2)cc1)OC[C@H]1OC(=O)N[C@@H]1CN1CCN(c2ccccc2)CC1 | 22.3%
2 | O=C1N[C@H](CN2CCN(c3ccccc3)CC2)[C@@H](COC(=O)c2ccccc2F)O1 | 20.4%
3 | O=C(Cc1ccc([N+](=O)[O-])cc1)OC[C@H]1OC(=O)N[C@@H]1CN1CCN(c2ccccc2)CC1 | 16.5%
4 | O=C1N[C@H](CN2CCN(c3ccccc3)CC2)[C@@H](COC(=O)c2c(Cl)cccc2Cl)O1 | 16.2%
5 | CCc1ccc(NC(=O)OC[C@H]2OC(=O)N[C@@H]2CN2CCN(c3ccccc3)CC2)cc1 | 19.1%
6 | Cc1cccc(NC(=O)OC[C@H]2OC(=O)N[C@@H]2CN2CCN(c3ccccc3)CC2)c1 | 26.7%
7 | CCCCCc1ccc(NC(=O)OC[C@H]2OC(=O)N[C@@H]2CN2CCN(c3ccccc3)CC2)cc1 | 11.1%
8 | CC(C)(C)OC(=O)N[C@@H](C(=O)OC[C@H]1OC(=O)N[C@@H]1CN1CCN(c2ccccc2)CC1)c1ccccc1 | 42.6%
9 | O=C1N[C@H](CN2CCN(c3ccccc3)CC2)[C@@H](COC(=O)c2ccccc2Oc2ccccc2)O1 | 26.5%
10 | CCCNC(=O)OC[C@H]1OC(=O)N[C@@H]1CN1CCN(c2ccccc2)CC1 | 9.6%
11 | O=C(Cc1ccccc1)OC[C@H]1OC(=O)N[C@@H]1CN1CCN(c2ccccc2)CC1 | 15.9%
12 | O=C(Nc1ccc(Cl)c(Cl)c1)OC[C@H]1OC(=O)N[C@@H]1CN1CCN(c2ccccc2)CC1 | 14.7%
13 | O=C(Nc1ccc([N+](=O)[O-])cc1)OC[C@H]1OC(=O)N[C@@H]1CN1CCN(c2ccccc2)CC1 | -4.9%
14 | O=C1N[C@H](CN2CCN(c3ccccc3)CC2)[C@@H](COC(=O)c2cc(OCc3ccccc3)c(OCc3ccccc3)c(OCc3ccccc3)c2)O1 | 18.6%
15 | COc1cccc(CC(=O)OC[C@H]2OC(=O)N[C@@H]2CN2CCN(c3ccccc3)CC2)c1 | 19.6%
16 | Cc1c(C(=O)OC[C@H]2OC(=O)N[C@@H]2CN2CCN(c3ccccc3)CC2)cccc1[N+](=O)[O-] | 24.5%
17 | O=C(COc1ccccc1)OC[C@H]1OC(=O)N[C@@H]1CN1CCN(c2ccccc2)CC1 | 9.4%
18 | O=C1N[C@H](CN2CCN(c3ccccc3)CC2)[C@@H](COC(=O)c2ccc(Cl)cc2)O1 | 22.8%
19 | Cc1ccc(C(=O)OC[C@H]2OC(=O)N[C@@H]2CN2CCN(c3ccccc3)CC2)cc1 | 27.5%
20 | CCCCCC(=O)OC[C@H]1OC(=O)N[C@@H]1CN1CCN(c2ccccc2)CC1 | 21%
21 | O=C(CC1CC2CCC1C2)OC[C@H]1OC(=O)N[C@@H]1CN1CCN(c2ccccc2)CC1 (some centres undefined) | 27.4%
22 | O=C1N[C@H](CN2CCN(c3ccccc3)CC2)[C@@H](COC(=O)c2ccccc2)O1 | 18.6%
23 | CCCCCCNC(=O)OC[C@H]1OC(=O)N[C@@H]1CN1CCN(c2ccccc2)CC1 | 23.7%
24 | N#Cc1ccccc1C(=O)OC[C@H]1OC(=O)N[C@@H]1CN1CCN(c2ccccc2)CC1 | 16.7%
25 | O=C1N[C@H](CN2CCN(c3ccccc3)CC2)[C@@H](COC(=O)Oc2ccccc2)O1 | 21.3%
26 | COc1ccc(CC(=O)OC[C@H]2OC(=O)N[C@@H]2CN2CCN(c3ccccc3)CC2)cc1 | 18.8%
27 | CC(=O)c1ccc(NC(=O)OC[C@H]2OC(=O)N[C@@H]2CN2CCN(c3ccccc3)CC2)cc1 | 13.4%

The compounds below were run on Nucleic Acid (assay: Binding affinity to Bacillus subtilis AM1A antiterminator model RNA assessed as increase in fluorescence at 10 uM by FRET assay relative to control).
Type: nucleic-acid assay

Row | SMILES | Activity
28 | O=C(Cc1ccc(-c2ccccc2)cc1)OC[C@H]1OC(=O)N[C@@H]1CN1CCN(c2ccccc2)CC1 | 25.3%
29 | O=C1N[C@H](CN2CCN(c3ccccc3)CC2)[C@@H](COC(=O)c2ccccc2F)O1 | 18.5%
30 | O=C(Cc1ccc([N+](=O)[O-])cc1)OC[C@H]1OC(=O)N[C@@H]1CN1CCN(c2ccccc2)CC1 | 9.1%
31 | O=C1N[C@H](CN2CCN(c3ccccc3)CC2)[C@@H](COC(=O)c2c(Cl)cccc2Cl)O1 | 15.3%
32 | CCc1ccc(NC(=O)OC[C@H]2OC(=O)N[C@@H]2CN2CCN(c3ccccc3)CC2)cc1 | 18.3%
33 | Cc1cccc(NC(=O)OC[C@H]2OC(=O)N[C@@H]2CN2CCN(c3ccccc3)CC2)c1 | 16.8%
34 | CCCCCc1ccc(NC(=O)OC[C@H]2OC(=O)N[C@@H]2CN2CCN(c3ccccc3)CC2)cc1 | 10.6%
35 | CC(C)(C)OC(=O)N[C@@H](C(=O)OC[C@H]1OC(=O)N[C@@H]1CN1CCN(c2ccccc2)CC1)c1ccccc1 | 39.6%
36 | O=C1N[C@H](CN2CCN(c3ccccc3)CC2)[C@@H](COC(=O)c2ccccc2Oc2ccccc2)O1 | 30.8%
37 | CCCNC(=O)OC[C@H]1OC(=O)N[C@@H]1CN1CCN(c2ccccc2)CC1 | 10.3%
38 | O=C(Cc1ccccc1)OC[C@H]1OC(=O)N[C@@H]1CN1CCN(c2ccccc2)CC1 | 8.5%
39 | O=C(Nc1ccc(Cl)c(Cl)c1)OC[C@H]1OC(=O)N[C@@H]1CN1CCN(c2ccccc2)CC1 | 8.9%
40 | O=C(Nc1ccc([N+](=O)[O-])cc1)OC[C@H]1OC(=O)N[C@@H]1CN1CCN(c2ccccc2)CC1 | -1.8%
41 | O=C1N[C@H](CN2CCN(c3ccccc3)CC2)[C@@H](COC(=O)c2cc(OCc3ccccc3)c(OCc3ccccc3)c(OCc3ccccc3)c2)O1 | 14.3%
42 | COc1cccc(CC(=O)OC[C@H]2OC(=O)N[C@@H]2CN2CCN(c3ccccc3)CC2)c1 | 18.9%
43 | Cc1c(C(=O)OC[C@H]2OC(=O)N[C@@H]2CN2CCN(c3ccccc3)CC2)cccc1[N+](=O)[O-] | 23.3%
44 | O=C(COc1ccccc1)OC[C@H]1OC(=O)N[C@@H]1CN1CCN(c2ccccc2)CC1 | 9.5%
45 | O=C1N[C@H](CN2CCN(c3ccccc3)CC2)[C@@H](COC(=O)c2ccc(Cl)cc2)O1 | 29.1%
46 | Cc1ccc(C(=O)OC[C@H]2OC(=O)N[C@@H]2CN2CCN(c3ccccc3)CC2)cc1 | 27.4%
47 | CCCCCC(=O)OC[C@H]1OC(=O)N[C@@H]1CN1CCN(c2ccccc2)CC1 | 15.5%
48 | O=C(CC1CC2CCC1C2)OC[C@H]1OC(=O)N[C@@H]1CN1CCN(c2ccccc2)CC1 (some centres undefined) | 29.5%
49 | O=C1N[C@H](CN2CCN(c3ccccc3)CC2)[C@@H](COC(=O)c2ccccc2)O1 | 14.8%
50 | CCCCCCNC(=O)OC[C@H]1OC(=O)N[C@@H]1CN1CCN(c2ccccc2)CC1 | 17.4%
51 | N#Cc1ccccc1C(=O)OC[C@H]1OC(=O)N[C@@H]1CN1CCN(c2ccccc2)CC1 | 7.3%
52 | O=C1N[C@H](CN2CCN(c3ccccc3)CC2)[C@@H](COC(=O)Oc2ccccc2)O1 | 12.4%
53 | COc1ccc(CC(=O)OC[C@H]2OC(=O)N[C@@H]2CN2CCN(c3ccccc3)CC2)cc1 | 13.7%
54 | CC(=O)c1ccc(NC(=O)OC[C@H]2OC(=O)N[C@@H]2CN2CCN(c3ccccc3)CC2)cc1 | 7.7%
